In US7056713B1, “Urate oxidase” (Duke University, priority 1998, dated 2006):
One block for each molecule: values may come before it.

Legend:
[1] = compared with uric acid; background statement; cited from earlier work
[2] = human, in vivo; cited from earlier work
[3] = target: T1, Aspergillus flavus uricase, clinical preparation (unmodified fungal enzyme) (Aspergillus flavus, UniProt Q00511); test: Kinetic comparison of A. flavus uricase clinical preparation with PEG-PBC uricase; format: biochemical; settings: pH 8.6 in borate buffer; versus PEG-PBC uricase
T1 sequence (Q00511 2-302 limits assumed): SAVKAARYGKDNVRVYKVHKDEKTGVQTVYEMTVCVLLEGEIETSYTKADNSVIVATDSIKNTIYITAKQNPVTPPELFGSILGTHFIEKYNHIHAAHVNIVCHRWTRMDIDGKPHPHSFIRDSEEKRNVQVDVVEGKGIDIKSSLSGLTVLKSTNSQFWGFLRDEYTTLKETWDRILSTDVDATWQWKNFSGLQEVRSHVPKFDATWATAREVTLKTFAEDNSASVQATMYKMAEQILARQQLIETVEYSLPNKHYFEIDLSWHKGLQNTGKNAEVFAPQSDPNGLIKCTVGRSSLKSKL
Procedure: (§1) In this PEGylation reaction all of the uricase subunits were modified (FIG. 1, lane 7). In studies not shown, the PEGylated enzyme had similar kinetic properties to unmodified PBC uricase (KM 10–20 μM). […] The PEGylated enzyme could also be lyophilized and then reconstituted in PBS, pH 7.2, with minimal loss of activity. In other experiments, we compared the activities of this preparation of PEG-PBC uricase with the A. flavus uricase clinical preparation. […] However, in PBS, pH 7.2, the PEG-PBC and unmodified fungal enzymes differed in uricase activity by <2 fold.

[4] = test system: recombinant pig-baboon chimeric uricase (PBC uricase; aa 1–225 of porcine uricase (SEQ ID NO:7) and aa 226–304 of baboon uricase (SEQ ID NO:6)), unmodified …; test: KM of unmodified recombinant PBC uricase (studies not shown); format: biochemical, pig-baboon chimera
Procedure: as §1

[5] = test system: PEGylated recombinant pig-baboon chimeric uricase (PEG-PBC uricase; PBC uricase SEQ ID NO:2); test: KM of PEGylated recombinant PBC uricase (studies not shown); format: biochemical, pig-baboon chimera; settings: similar kinetic properties to unmodified
Procedure: 100 mg of concentrated Sepahacryl S-200 PBC uricase (5 mg/ml, 2.9 μmol enzyme; 84.1 μmol lysine) in 0.1 M Na2CO3, pH 10.2 was allowed to react with a 2-fold excess (mol of PEG:mol uricase lysines) of an activated form of PEG at 4° for 60 min. The PEGylated uricase was freed from any unreacted or hydrolyzed PEG by tangential flow diafiltration. In this step the reaction was diluted 1:10 in 0.1 M Na2CO3, pH 10.2 and diafiltered vs. 3.5 vol 0.1 M Na2CO3, pH 10.2, then vs. 3.5 vol 0.05 M sodium phosphate, 0.15 M NaCl, pH 7.2. The filter-sterilized enzyme was stable at 4° for at least one month.
In this PEGylation reaction all of the uricase subunits were modified (FIG. 1, lane 7). In studies not shown, the PEGylated enzyme had similar kinetic properties to unmodified PBC uricase (KM 10–20 μM). Importantly, the modified enzyme was much more soluble than the unmodified enzyme at physiologic pH (>5 mg/ml in PBS vs. <1 mg/ml). The PEGylated enzyme could also be lyophilized and then reconstituted in PBS, pH 7.2, with minimal loss of activity. In other experiments, we compared the activities of this preparation of PEG-PBC uricase with the A. flavus uricase clinical preparation. […] However, in PBS, pH 7.2, the PEG-PBC and unmodified fungal enzymes differed in uricase activity by <2 fold.

SMILES: NC(=O)NC1NC(=O)NC1=O (stereo not shown) [allantoin]
solubility relative to uric acid (times more soluble) [1]: 80–100 times

SMILES: Oc1ncnc2[nH]ncc12 [allopurinol]
patients who develop allergic reactions [2]: ~2%
severe hypersensitivity syndrome [2]: ~0.4%

KM, fold higher than PEG-PBC uricase [3]: 2 fold
Vmax, fold higher than PEG-PBC uricase [3]: 10–14 fold
Km [4]: 10 to 20 µM
Km [5]: 10 to 20 µM
SMILES: O=c1[nH]c(=O)c2[nH]c(=O)[nH]c2[nH]1 [uric acid]
